Results: patent US8937044B2, “Process for the synchronization of ovulation for timed breeding without heat detection” (priority 2003, dated 2015)

Assays:
Type in all cases: in vivo, swine
[1] = test system: LH; assay: LH response (RIA) in ovariectomized estrogen primed gilt model, dose response study; details: single injection of 50 mcg in SAIB
Experimental: A dose response study was performed using deslorelin in SAIB in an ovariectomized estrogen primed gilt model (Barb, et al. (1999) Proceed. Int'l. Symp. Control. Rel. Bioact. Mater., 26).

[2] = test system: mature postpartum sows; assay: Deslorelin at first detected estrus in postpartum sows, AI breeding (Example 2)
Experimental: Sows were assigned randomly in blocks of two to either control or to be injected intravulvar with 50 mcg of deslorelin in SAIB at the time of estrus detection for sows first detected in estrus in the a.m. and 12 hours later for those first detected in estrus in the p.m. Treated animals were bred AI upon detected estrus and again 24 hours later if still in estrus. Controls received a saline injection on first detected estrus behavior estrus detection and were bred according to the farm's normal procedures.

[3] = test system: postpartum sows; assay: Timed deslorelin injection 96 h post-weaning and single timed insemination without estrus detection (Example 3)
Experimental: (§1) Approximately 170 postpartum sows were randomly divided into two equal groups comprised of controls and treated. Following weaning, the controls were detected for estrus and bred following the normal standard operating procedures for the farms on which they resided. The treated sows received a 50 mcg dose of deslorelin in SAIB at 96 hours post-weaning and were bred with a single insemination 28+/−2 hours later with no regard to estrus detection. The sows were examined for pregnancy by ultrasound at 21 days and slaughtered around 28 days post breeding. The entire reproductive tract was removed and corpora lutea and embryos were counted.

[4] = test system: postpartum sows; assay: Litter size after deslorelin treatment in sows, three farm sites (Example 4); details: Tables 3-5, three sites, regardless of estrus detection
Source text: Postpartum sows were randomly distributed into three different groups comprised of Controls, Treatment 1, and Treatment 2, with the exception of Site 3, which was divided into two groups, Control and Treatment 2. Control sows were detected for estrus following weaning, and bred following the normal standard operating procedures for the farms on which they resided. Treatment 1 sows were detected for estrus following weaning, and received a 50 mcg dose of deslorelin in the morning when standing and were bred by AI 4 hours later and again at 24+/−2 hours later. Treatment 2 sows received a 50 mcg dose of deslorelin in SAIB at 96 or 120 hours post-weaning and were bred with a single insemination 28+/−2 hours later with, no regard to estrus detection.

[5] = test system: postpartum sows; assay: Pregnancy rate after deslorelin treatment in sows, summary of Tables 2-5; details: Table 6 summary
Experimental: as §1, with “counted. Postpartum sows were randomly distributed into three different groups comprised of Controls, Treatment 1, and Treatment 2, with the exception of Site 3, which was divided into two groups, Control and Treatment 2. Control sows were detected for estrus following weaning, and bred following the normal standard operating procedures for the farms on which they resided. Treatment 1 sows were detected for estrus following weaning, and received a 50 mcg dose of deslorelin in the morning when standing and were bred by AI 4 hours later and again at 24+/−2 hours later. Treatment 2 sows received a 50 mcg dose of deslorelin in SAIB at 96 or 120 hours post-weaning and were bred with a single insemination 28+/−2 hours later with, no regard to estrus detection.” for “counted.”

CCNC(=O)[C@@H]1CCCN1C(=O)[C@H](CCCN=C(N)N)NC(=O)[C@H](CC(C)C)NC(=O)[C@@H](Cc1c[nH]c2ccccc12)NC(=O)[C@H](Cc1ccc(O)cc1)NC(=O)[C@H](CO)NC(=O)[C@H](Cc1c[nH]c2ccccc12)NC(=O)[C@H](Cc1cnc[nH]1)NC(=O)[C@@H]1CCC(=O)N1 [Deslorelin, deslorelin]
time at which LH returned to base level [1]: ≤ 18 h | LH peak relative to normal value ([1]; normal value from Hansel et al. 1973): about twice normal value | Pregnancy Rate ([2]; 50 μg deslorelin acetate (1 ml) intravulvar at first estrus detection, AI, again next day if in estrus, n = 75): 91% | pregnancy rates, Control versus Treated (in words) ([2]; 50 mcg in SAIB intravulvar at estrus detection): no significant difference | Embryo Survival ([3]; 50 mcg in SAIB 96 h post-weaning, single insemination 28+/-2 h later): 64% | Sows Pregnant ([3]; 50 mcg in SAIB 96 h post-weaning, single insemination 28+/-2 h later, 84 sows in group): 60 | Pregnancy Rate ([3]; 50 mcg in SAIB 96 h post-weaning, single insemination 28+/-2 h later, no estrus detection): 71% | pregnancy rates (in words) ([3]; single timed injection in SAIB post-weaning, single timed insemination, no estrus detection): normal pregnancy rates were attained | litter sizes (in words) [4]: normal litter sizes | pregnancy rates (in words) [5]: normal pregnancy rates were obtained
